Assays:
[1] = tested on: BRCA-negative patients with advanced-stage triple-negative breast cancer; conditions: 15 BRCA-negative patients, advanced-stage TNBC; cited from earlier work
MCF-10A cells = experiment: Colony formation assay in MCF-10A knockdown cell lines; type: cell-based, human
Description: FIGS. 3A-C. Loss of PTEN Reverses HRD and Confers PARP Inhibitor Resistance to BRCA1-Depleted Cells through Over-expression of TTK. (A) Modified HR repair assay was performed in MCF-10A cells by transfecting cells with DRGFP DSB substrate plasmid and I-SceI plasmid through electroporation, followed by analysis of GFP-positive cells by flow cytometry 48 to 72 hours later. Each value is relative to the percentage of GFP-positive cells in I-SceI-transfected control cells. Results are show as mean±SD from three independent experiments. Student's t-test was performed from results of three independent experiments. (B) Cells were seeded at a very low density and treated with indicated concentrations of olaparib for 10 to 15 days to allow colony formation. The rate of cell survival in response to olaparib was determined by colony formation assay. Each value was relative to control cells without treatment and represents the mean±SD from three independent experiments. […] (C) Quantitative analysis of HR repair assay in cells transfected with TTK plasmids or the indicated siRNAs. Each value is relative to the percentage of GFP-positive cells in I-SceI-transfected control cells. Results are shown as mean±SD from three independent experiments. […] BRCA1 SMARTpool siRNA was used as a positive control.
FIGS. 11A-B. The HRD Gene Signature Predicts HR-deficiency and Sensitivity to PARP Inhibitors in Cancer Cells. (A) Cells were seeded in a very low density and treated with indicated concentrations of PARP inhibitor olaparib for 10-15 days to allow colony formation. The rate of cell survival was determined by colony-formation assay. Colonies were stained with 0.25% crystal violet/25% methanol and counted both manually and digitally using ImageJ software. […]
Colony Forming Assay. […] Colonies were counted manually (colonies containing 50 or more cells were counted) or digitally using ImageJ software with customized parameters optimized based on three preliminary manual counts or blindly chosen. […]

[2] = tested on: BRCA1/2 mutation carriers with recurrent ovarian cancer; conditions: phase II; cited from earlier work
BRCA mutation carriers = conditions: phase I, oral monotherapy; cited from earlier work
[3] = tested on: breast cancer patients with BRCA1/2 mutations; conditions: phase II; cited from earlier work
[4] = tested on: cancer cell lines with and without the HRD gene signature; experiment: Colony formation and MTT assay in cancer cell lines with intact or defective HR; type: cell-based, human; conditions: prostate, renal, lung, ovarian, breast cancer lines; colony formation, MTT
Description: FIGS. 2A-D. The HRD Gene Signature Predicts Sensitivity to PARP Inhibitors in Cancer Cells. (A) Cell lines with intact HR (I) and defective HR (D) were selected for five cancer types as follows: prostate cancer: PC-3 (D) and DU-145 (I); renal cancer: ACHN (D) and 7860-O (I); lung cancer: H266 (D) and H522 (I); ovarian cancer: OVCAR-3 (D) and OVCAR-8 (I); and breast cancer: MCF7 (D), MDA-MB-231 (I), and HCC1937 […]. Modified HR repair assay was performed by transfecting cells with DRGFP DSB substrate plasmid and I-SceI plasmid through electroporation at 270V, 975uF using a BioRad genepulsar II. Flow cytometry analysis was performed 48 to 72 hours later to detect GFP-positive cells. […] (B-D) Colony formation assay was performed with the indicated concentrations of olaparib (B) or rucaparib (C), or (D) cell lines were seeded in 96-well plates, treated with olaparib at the indicated concentrations for 5 days, and then analyzed by MTT assay. […]
Cell Proliferation Assay. Cell proliferation was measured by MTT (3-(4,5-dimethylthiazol-2-yl)-2,5-diphenyltetrazolium bromide; Sigma) reduction. […] Plates were read at 490 nm and 650 nm (background) in a microplate reader (Molecular Devices). After subtraction of background, the cell viability was calculated as fold change relative to control cells. The OD values were analyzed with Graphpad Prism 6.0 software. […]

HCC1937 cells = experiment: Apoptosis analysis; type: cell-based, human; conditions: olaparib plus TTK inhibitor, 48 hours
Description: FIGS. 14A-B. TTK inhibitor enhances apoptosis induced by PARP inhibitor. (A) TTK expression levels in basal-like or luminal breast cancer cell lines and immortal human mammalian epithelial cells. Cell lysates were harvested from indicated cell lines and subjected to Western blot analysis. (B) HCC1937 cells were treated with olaparib, or combined with TTK inhibitor AZ3146 for 48 hours and subjected to apoptosis analysis. Each value represents the mean±SD from three independent experiments.

HCC1937 = experiment: Drug combination study by MTT assay (combination index, CompuSyn); type: cell-based, human
Description: Cell Proliferation Assay. Cell proliferation was measured by MTT (3-(4,5-dimethylthiazol-2-yl)-2,5-diphenyltetrazolium bromide; Sigma) reduction. To test the cell proliferation rate, 500-1×10^4 cells/well were seeded in a 96-well plate in a total volume of 100 μL in triplicate in each experiment. The next day, cells were treated with indicated concentrations of drugs. Five days later, 20 μL of MTT substrate (2 mg/mL) was added to each well and incubated with cells for 3 hr. Then the culture medium was removed, and 100 μL of dimethyl sulfoxide was added. Plates were read at 490 nm and 650 nm (background) in a microplate reader (Molecular Devices). After subtraction of background, the cell viability was calculated as fold change relative to control cells. The OD values were analyzed with Graphpad Prism 6.0 software. Each value is relative to the value in the cells treated with vehicle control. Results are shown as mean±SEM from three independent experiments.
Drug Combination Studies. […] CI<1 indicated synergism, and CI=1 and CI>1 indicated additive and antagonism, respectively.

In the case of `O=C(c1cc(Cc2n[nH]c(=O)c3ccccc23)ccc1F)N1CCN(C(=O)C2CC2)CC1` [olaparib], the “complete or partial responses” value [1] is given as “no complete or partial responses”, the “sensitization by BRCA1-PTEN double knockdown” value (MCF-10A cells; MCF-10A double knockdown cells) is given as “did not sensitize cells” and the “cellular sensitivity of BRCA1-, RAD51- and BRIT1-deficient cells” value (MCF-10A cells; MCF-10A knockdown vs control cells, 10-15 days) is given as “greatly increased cellular sensitivity”. The “sensitization by BRCA1 or PTEN deficiency” value (MCF-10A cells; MCF-10A single knockdown cells) was “sensitized cells”, the objective response rate [2] was 33% and the “BRCA mutation carriers that did not respond” value (BRCA mutation carriers) was “more than 35%”. The response rate [3] was 41% and the “sensitivity of cell lines with the HRD gene signature compared with cell lines with intact HR repair” value [4] was “more sensitive”.
For AZ3146, the apoptosis (HCC1937 cells) was “enhanced olaparib-induced apoptosis”.
With `CCNC(=O)c1noc(-c2cc(C(C)C)c(O)cc2O)c1-c1ccc(CN2CCOCC2)cc1` [AUY922] the “synergistic effect on PARP inhibitor treatment” value (HCC1937; MTT) was “synergistic effect” and the “synergy compared with vorinostat combinations” value (HCC1937; combinations with PARP inhibitors) was “relatively higher synergy”.
With `CNCc1ccc(-c2[nH]c3cc(F)cc4c3c2CCNC4=O)cc1` [rucaparib] the “sensitivity of cell lines with the HRD gene signature compared with cell lines with intact HR repair” value [4] was “more sensitive”.
